Entries after “also recorded” stand apart in the source; their conditions may differ.
How the values were obtained:
[1] = test system: full-length unspliced HIV mRNA; experiment: RT-PCR of unspliced HIV mRNA in U1 cells; type: cell-based; conditions: 10 nM PMA, 2 days
Protocol: FIG. 6 is a bar graph that depicts how INK128 inhibits HIV transcription in U1 cells. U1 cells were cultured in the presence of 10 nM PMA and the indicated concentrations of INK128. After 2 days, cells were collected, mRNA isolated, quantified, reverse transcribed and amplified by real time PCR using unspliced HIV cDNA primer pair US.1a/US.2a and housekeeping [beta]-actin primers. For quantification, standard curves for unspliced HIV cDNA and [beta]-actin sequences were generated by performing 10-fold serial dilutions of mRNA isolated from PBLs acutely infected with HIV BaL. PCR amplification was performed using Quantitect® SYBR Green PCR Kit in a LightCycler®. Negative controls consisted of mixture reactions without the reverse transcription step according to an embodiment.
Total cellular RNA was isolated using the Qiagen™ RNA Isolation Kit (Qiagen™) RNA was then treated with DNase I, Amplification Grade (Invitrogen™), and reverse transcribed with SuperScript III First-Strand Synthesis Supermix™ (Invitrogen™) using hexamer primers. An aliquot of the cDNA was used as a template for PCR amplification of full length, unspliced HIV cDNA using primers US.1a and US.2a, and another aliquot for amplification with primer pairs specific for housekeeping [beta]-actin sequences (63).
The effects of INK128 on activation of HIV in the chronically HIV-infected U1 cell line were examined. […]

HIV-1 BaL = experiment: Antiretroviral potency with and without INK128 in PBLs infected with HIV BaL; type: cell-based; conditions: two donors
Protocol: PBLs were separated from buffy coats by density centrifugation over Ficoll-Hypaque (Sigma™), and activated by culture in the presence of 1 μg/mL anti-human CD3 antibody (clone x35, Fisher Scientific™) and 2 μg/mL anti-human CD28 antibody (Clone CD28.6, eBioscience™) for 3 days. Activated cells were infected by incubation with virus at a multiplicity of infection (MOI) of 0.001 for 2 hours. Infected cells were washed three times with PBS and cultured in 5% CO2 at 37° C., in RPMI/10% FBS supplemented with 100 units/mL IL-2 (Roche™) and antiviral drugs, in 96-well flat-bottom plates at a density of […] PBLs per 200 μL. Following 3 d of culture, half of the medium was replaced with fresh medium containing IL-2 and antiviral drugs. On day 7, viral replication was measured by p24 ELISA (Coulter) in culture supernatants and cell viability was measured by MTT assays.
Available ARTs target the HIV lifecycle steps of entry, reverse transcription, integration, and maturation. […] In addition, by targeting virus transcription, INK128 could have favorable interactions with inhibitors of reverse transcription (RTIs), integration (Hs), and protease (PIs). […] We conducted these assays in activated PBLs infected with R5 HIV BaL and treated with various dilutions of Maraviroc (CCR5 antagonist), Efavirenz (RTI), Raltegravir (II), and Indinavir (PI). INK128 was used at low concentrations (<EC50) to better detect changes in ART potency (Table 7).
Prism software. Data are from 2 experiments, each with a different donor.

CXCR4 = experiment: Flow cytometry quantitation of surface receptor on PBLs; conditions: IL-2, 7 days, three donors
[2] = Tolerability in huPBL-NSG mice (body weight, wasting, death)
HIV BaL = HIV BaL infection of NSG mice reconstituted with human PBLs
U1 cells = experiment: U1 cell proliferation (optimization experiments); type: cell-based; conditions: concentrations higher than 10 nM
[3] = test system: chronically HIV-infected U1 cell line; experiment: HIV activation in chronically infected U1 cells, p24 ELISA; type: cell-based; conditions: INK128 <10 nM, day 3
Protocol: FIG. 5A-5C are bar graphs that illustrate INK128's inhibition of HIV activation in chronically infected cells. Latently HIV infected U1 cells were cultured in the presence of various concentrations of INK128 for 1 hour. Cultures were then untreated (FIG. 5A), or treated with HIV inducers PMA (FIG. 5B) and Tat protein (FIG. 5C). HIV production was measured by p24 ELISA in the culture supernatants on day 3 according to an embodiment.
The effects of INK128 on activation of HIV in the chronically HIV-infected U1 cell line were examined. The U1 cell line carries two copies of the HIV provirus per cell (33). Under basal conditions, U1 cells express low levels of HIV, but HIV expression is enhanced by stimulation with the phorbol ester PMA or by exogenous addition of Tat (34, 35). U1 cells were cultured in the presence of INK128 in the absence and presence of 10 nM PMA or 1 μg/mL Tat. […] As expected, unstimulated U1 cells produced low levels of HIV p24, but production was increased by addition of PMA or Tat.

Compound: CC(C)n1nc(-c2ccc3oc(N)nc3c2)c2c(N)ncnc21 [INK128, 5-(4-amino-1-propan-2-ylpyrazolo[3,4-d]pyrimidin-3-yl)-1,3-benzoxazol-2-amine]
- synthesis of full-length unspliced HIV mRNA [1]: inhibits synthesis
- effect on the potency of the other tested ARTs (Efavirenz, Raltegravir, Indinavir) (HIV-1 BaL): no negative effect
- enhancement of the antiviral potency of Maraviroc (HIV-1 BaL): five- to six fold
- CXCR4 levels (percentage or density) (CXCR4): did not change
- effect on weight of the animals ([2]; 1-5 mg/kg once daily i.p. for 14 days): no adverse effects; also recorded: without obvious toxicity
- toxicity in pilot experiment ([2]; uninfected huPBL-NSG mice, 7 mg/kg daily i.p. for 2 wk): wasting and death
- mean CD4/CD8 cell ratio (HIV BaL; day 14, 1 mg/kg/day i.p.): 0.11
- mean CD4/CD8 cell ratio (HIV BaL; day 14, 3 mg/kg/day i.p.): 0.18
- mean CD4/CD8 cell ratio (HIV BaL; day 14, 5 mg/kg/day i.p.): 0.76
- cell proliferation of U1 cells (U1 cells): inhibition of cell proliferation
- p24 production ([3]; U1 cells treated with 10 nM PMA): inhibited p24 production
- p24 production ([3]; U1 cells treated with 1 μg/mL Tat): inhibited p24 production
- p24 production ([3]; untreated U1 cells): inhibited p24 production
